These results are taken from PubChem BioAssay AID330 (DTP/NCI, 2004).

Several values for one entry are separate records, joined by “and”; a condition that tells them apart may be missing. Identical values can stand only once. Toxic doses and inconclusive results are not listed. Peptide text beside a SMILES is read from it.

This assay has as its system P388 leukemia ip, CD2F1 mice, survival T/C. The experiment in a line: NCI In Vivo Anticancer Drug Screen. Data for tumor model P388 Leukemia (intraperitoneal) in CD2F1 (CDF1) mice. To be noted: endpoint: median survival time, higher = longer survival. In short, it runs like this:
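Mice carrying the transplanted tumor received test compound or vehicle. Survival was recorded in each group, and the value is the treated-group measurement divided by that of the vehicle-treated control group.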

The mark [1] stands for this setting: dose: 60.0 mg/kg/injection, schedule: Q01DX005 (ip), vehicle: saline with Tween-80.
Where [2] appears, read: dose: 60.0 mg/kg/injection, schedule: Q01DX005 (ip), vehicle: saline.
The mark [3] stands for this setting: dose: 120.0 mg/kg/injection, schedule: Q01DX005 (ip), vehicle: saline with Tween-80.
[4] abbreviates: dose: 120.0 mg/kg/injection, schedule: Q01DX005 (ip), vehicle: saline.
[5] abbreviates: dose: 240.0 mg/kg/injection, schedule: Q01DX005 (ip), vehicle: saline with Tween-80.
The mark [6] stands for this setting: dose: 50.0 mg/kg/injection, schedule: Q01DX005 (ip), vehicle: Klucel (hydroxypropylcellulose) (HPC).
The mark [7] stands for this setting: dose: 100.0 mg/kg/injection, schedule: Q01DX005 (ip), vehicle: Klucel (hydroxypropylcellulose) (HPC).
Setting [8] is: dose: 200.0 mg/kg/injection, schedule: Q01DX005 (ip), vehicle: Klucel (hydroxypropylcellulose) (HPC).
Where [9] appears, read: dose: 50.0 mg/kg/injection, schedule: Q04DX003 (ip), vehicle: Klucel (hydroxypropylcellulose) (HPC).
Setting [10] is: dose: 100.0 mg/kg/injection, schedule: Q04DX003 (ip), vehicle: Klucel (hydroxypropylcellulose) (HPC).
[11] abbreviates: dose: 200.0 mg/kg/injection, schedule: Q04DX003 (ip), vehicle: Klucel (hydroxypropylcellulose) (HPC).

With `CCOC(=O)/C=C(\C)NC1CC(OC2CC(O)(C(C)=O)Cc3c(O)c4c(c(O)c32)C(=O)c2c(OC)cccc2C4=O)OC(C)C1O` (centres undefined), the T/C by setting is: (dose: 6.25 mg/kg/injection, schedule: Q04DX003 (ip), vehicle: distilled water + Tween-80) 110 % of control; (dose: 12.5 mg/kg/injection, schedule: Q04DX003 (ip), vehicle: distilled water + Tween-80) 119 % of control; (dose: 50.0 mg/kg/injection, schedule: Q04DX003 (ip), vehicle: distilled water + Tween-80) 118 % of control.

On to `Nc1nnc(Cc2ccccc2)n1N`, for which the T/C was 100 % of control (dose: 15.0 mg/kg/injection, schedule: Q01DX005 (ip), vehicle: saline); 101 % of control (dose: 30.0 mg/kg/injection, schedule: Q01DX005 (ip), vehicle: saline); 98 % of control under setting [1]; 100 % of control and 117 % of control under setting [2]; 100 % of control under setting [3]; 116 % of control under setting [4]. Besides, the T/C under setting [5] is 94 % of control.

Take `C1CN=C(N2CCCC2)C1`: the T/C (dose: 12.5 mg/kg/injection, schedule: Q01DX009 (ip), vehicle: saline with Tween-80) was 103 % of control; the T/C (dose: 25.0 mg/kg/injection, schedule: Q01DX009 (ip), vehicle: saline with Tween-80) was 94 % of control; the T/C (dose: 50.0 mg/kg/injection, schedule: Q01DX009 (ip), vehicle: saline with Tween-80) was 101 % of control and 90 % of control.

On to `COc1ccc(OCC2=NCCc3ccccc32)cc1`, for which the T/C under setting [6] is 99 % of control, the T/C under setting [7] is 107 % of control and the T/C under setting [8] was 109 % of control.

On to `CCCCCCCC/C=C\CCCCCCCC(=O)O`, for which the T/C by setting is: under setting [9], 104 % of control; under setting [10], 103 % of control and 97 % of control; under setting [11], 102 % of control and 93 % of control; (dose: 400.0 mg/kg/injection, schedule: Q04DX003 (ip), vehicle: Klucel (hydroxypropylcellulose) (HPC)) 92 % of control.

As to `Cl[Si](Cl)(Cl)CCc1ccccn1`, the T/C is, setting by setting: (dose: 25.0 mg/kg/injection, schedule: Q01DX009 (ip), vehicle: saline) 99 % of control; (dose: 50.0 mg/kg/injection, schedule: Q01DX009 (ip), vehicle: saline) 86 % of control; (dose: 100.0 mg/kg/injection, schedule: Q01DX009 (ip), vehicle: saline) 95 % of control; (dose: 200.0 mg/kg/injection, schedule: Q01DX009 (ip), vehicle: saline) 100 % of control.

For `CN(Cc1cnc2nc(N)nc(N)c2n1)c1ccc(C(=O)NC(CCC(=O)NC(CCC(=O)O)C(=O)O)C(=O)O)cc1` (centres undefined), the T/C is, setting by setting: (dose: 1.56 mg/kg/injection, schedule: Q01DX009 (ip), vehicle: Klucel (hydroxypropylcellulose) (HPC)) 184 % of control and 218 % of control; (dose: 3.12 mg/kg/injection, schedule: Q01DX009 (ip), vehicle: Klucel (hydroxypropylcellulose) (HPC)) 214 % of control and 94 % of control; (dose: 6.25 mg/kg/injection, schedule: Q01DX009 (ip), vehicle: Klucel (hydroxypropylcellulose) (HPC)) 88 % of control.

For the compound `O=C1CCC(Cc2ccc(Cl)cc2Cl)C(=O)N1` (centres undefined), the T/C runs as follows: under setting [1], 96 % of control; under setting [3], 94 % of control; under setting [5], 87 % of control.

`N#CCCN(N)S(=O)(=O)c1ccccc1`: the T/C is, setting by setting: under setting [6], 99 % of control; under setting [7], 99 % of control; under setting [8], 98 % of control.

On to `O=C(O)C(=O)O.[NH-]C1CCCC1[NH-].[Pt+2]` (centres undefined), for which the T/C is 166 % of control (dose: 12.5 mg/kg/injection, schedule: Q04DX002 (ip), vehicle: saline with Tween-80) and 176 % of control (dose: 12.5 mg/kg/injection, schedule: Q04DX002 (ip), vehicle: saline).

For the compound `COc1cc2ccccc2c2cc([N+](=O)[O-])oc12`, the T/C under setting [6] was 110 % of control, the T/C under setting [7] is 101 % of control and the T/C under setting [8] was 110 % of control.

As to `CN1NC(=O)c2ccccc2NC1=S`, the T/C is, setting by setting: (dose: 50.0 mg/kg/injection, schedule: Q01DX009 (ip), vehicle: Klucel (hydroxypropylcellulose) (HPC)) 104 % of control; (dose: 100.0 mg/kg/injection, schedule: Q01DX009 (ip), vehicle: Klucel (hydroxypropylcellulose) (HPC)) 91 % of control; (dose: 200.0 mg/kg/injection, schedule: Q01DX009 (ip), vehicle: Klucel (hydroxypropylcellulose) (HPC)) 101 % of control.

Regarding `CC(O)C1/C=C/C=C\C(=O)O[C@@H]2C[C@H]3OC4C5OC5(C)CCC4(COC(=O)C4O[C@@]4(C)CCO1)[C@]2(C)[C@]31CO1` (some centres undefined), the T/C is, setting by setting: (dose: 1.25 mg/kg/injection, schedule: Q01DX009 (ip), vehicle: Klucel (hydroxypropylcellulose) (HPC)) 104 % of control; (dose: 2.5 mg/kg/injection, schedule: Q01DX009 (ip), vehicle: Klucel (hydroxypropylcellulose) (HPC)) 113 % of control; (dose: 5.0 mg/kg/injection, schedule: Q01DX009 (ip), vehicle: Klucel (hydroxypropylcellulose) (HPC)) 118 % of control; (dose: 10.0 mg/kg/injection, schedule: Q01DX009 (ip), vehicle: Klucel (hydroxypropylcellulose) (HPC)) 122 % of control.

As to `CN=C(c1ccc(NC(=O)c2cccc(C(=O)Nc3ccc(C(=NC)N(C)C4CCCCC4)cc3)c2)cc1)N(C)C1CCCCC1`, the T/C runs as follows: (dose: 1.56 mg/kg/injection, schedule: Q01DX005 (ip), vehicle: Klucel (hydroxypropylcellulose) (HPC)) 104 % of control; (dose: 3.12 mg/kg/injection, schedule: Q01DX005 (ip), vehicle: Klucel (hydroxypropylcellulose) (HPC)) 102 % of control.

For the compound `COc1cc2c3c(cccc3c1)C(=O)N(CCN1CCCC1)C2=O`, the T/C by setting is: (dose: 17.3 mg/kg/injection, schedule: Q01DX009 (ip), vehicle: saline with Tween-80) 112 % of control; (dose: 34.7 mg/kg/injection, schedule: Q01DX009 (ip), vehicle: saline with Tween-80) 116 % of control; under setting [9], 100 % of control; (dose: 69.3 mg/kg/injection, schedule: Q01DX009 (ip), vehicle: saline with Tween-80) 116 % of control; under setting [10], 101 % of control; under setting [11], 100 % of control.

Turning to `CCC(C)C(N)C(=O)NC(C(=O)O)C(C)C` (stereo not drawn) (H-Ile-Val-OH; configuration not given here), the T/C is, setting by setting: under setting [2], 95 % of control; under setting [4], 103 % of control; (dose: 240.0 mg/kg/injection, schedule: Q01DX005 (ip), vehicle: saline) 95 % of control.

With `C/C(=C\C(=O)c1ccccc1)N1CCN(c2ccc(F)cc2)CC1`, the T/C was 102 % of control under setting [6], 105 % of control under setting [7] and 96 % of control under setting [8].

For the compound `CCN(CCCl)/N=N/c1nc2c([nH]1)c(=O)n(C)c(=O)n2C`, the T/C was 100 % of control (dose: 50.0 mg/kg/injection, schedule: Q01DX005 (ip), vehicle: saline); 105 % of control (dose: 100.0 mg/kg/injection, schedule: Q01DX005 (ip), vehicle: saline); 109 % of control (dose: 200.0 mg/kg/injection, schedule: Q01DX005 (ip), vehicle: saline).

As to `CN(C)c1ccc(C(=O)C2(O)CCCC(C)(C)C2)cc1` (centres undefined), the T/C is 103 % of control (dose: 100.0 mg/kg/injection, schedule: Q01DX001 (ip), vehicle: Klucel (hydroxypropylcellulose) (HPC)); 101 % of control (dose: 200.0 mg/kg/injection, schedule: Q01DX001 (ip), vehicle: Klucel (hydroxypropylcellulose) (HPC)); 101 % of control (dose: 400.0 mg/kg/injection, schedule: Q01DX001 (ip), vehicle: Klucel (hydroxypropylcellulose) (HPC)).

For the compound `COc1c(NC(C)=O)c2c(c([N+](=O)[O-])c1OC)C(=O)OC2`, the T/C under setting [6] is 106 % of control, the T/C under setting [7] is 104 % of control and the T/C under setting [8] was 110 % of control.

Turning to `[Cl][Rh][Cl].[NH-]c1nc2c(ccc3ccccc32)s1.[NH-]c1nc2c(ccc3ccccc32)s1.[NH-]c1nc2c(ccc3ccccc32)s1.[NH-]c1nc2c(ccc3ccccc32)s1`, the T/C by setting is: (dose: 100.0 mg/kg/injection, schedule: Q04DX003 (ip), vehicle: saline) 108 % of control; (dose: 200.0 mg/kg/injection, schedule: Q04DX003 (ip), vehicle: saline) 109 % of control; (dose: 400.0 mg/kg/injection, schedule: Q04DX003 (ip), vehicle: saline) 105 % of control.

Take `CCCCCCCCCCCCCCCC(=O)O[C@@H]1[C@@H](C)[C@@]2(O)[C@@H](C=C(CO)C[C@]3(O)C(=O)C(C)=C[C@@H]23)[C@H]2[C@]1(OC(C)=O)[C@]2(C)CO`: the T/C is 117 % of control and 120 % of control (dose: 0.13 mg/kg/injection, schedule: Q01DX005 (ip), vehicle: distilled water + Tween-80); 111 % of control (dose: 0.25 mg/kg/injection, schedule: Q01DX005 (ip), vehicle: distilled water + Tween-80); 106 % of control (dose: 0.5 mg/kg/injection, schedule: Q01DX005 (ip), vehicle: distilled water + Tween-80).
